Reference: paper PMC10914731, “Homo-BacPROTAC-induced degradation of ClpC1 as a strategy against drug-resistant mycobacteria” (Nature Communications, 2024)
Where “and” joins values, the source holds several entries; their conditions need not be identical. Identical values can stand only once. Like-named read-outs stand apart in the source and are kept apart here. *1 amine or outer side, *2 acyl side, *3 side chain or, on linkers, in order; H or OH if unused. Where a SMILES comes first, the peptide text is derived from it. Bridges are numbered along the chain shown (N, C = ends). Roman numbers before positions name the chains, in order. [ ]: non-standard residue; d: D form. ξ: configuration not given here. X10 = CN([C@@H](Cc1cn(CC=[*:3])c2ccccc12)C(=O)[*:2])[*:1]; X3 = C#CCOc1ccc([C@@H](OC)[C@H](N[*:1])C(=O)[*:2])cc1; NMeLeu(5-OH,4R) = CN[C@@H](C[C@@H](C)CO)C(=O)O; Phe(βR-OMe) = CO[C@H](c1ccccc1)[C@H](N)C(=O)O; ξNMeTrp(1-Me) = CNC(Cc1cn(C)c2ccccc12)C(=O)O; X8 = CC(CO)C[C@@H](C(=O)[*:2])N(C)[*:1]; NMeL = CN[C@@H](CC(C)C)C(=O)O; ξV = CC(C)C(N)C(=O)O

Columns and labels:
[1] = biological target: ClpC1-NTD substrate, M. tuberculosis ClpC1P1P2 (Mycobacterium tuberculosis, UniProt P9WPC9); assay: biochemical; assay type: biochemical
[2] = biological target: ClpC1 NTD protein (M. tuberculosis) (Mycobacterium tuberculosis, UniProt P9WPC9); assay: biochemical; assay type: binding
[3] = assay type: in vitro ADME, Rat
Protocol: (§1) Cryopreserved hepatocytes are incubated in an appropriate buffer system containing 50% species serum. Following an acclimation period (15–30 min) in an incubator (37 °C, 5−10% CO2, 85–95% humidity) the test compound is added to the hepatocyte suspension (pH 7.4, typical cell density of about 1 million cells/mL; final concentration of test compound is 1 µM, final DMSO concentration <0.05% v/v). The cells are incubated for up to 6 h and samples are taken at 6 different time points. Samples are then quenched with acetonitrile and pelleted by centrifugation. The remaining amount of parent compound in the supernatants is then analysed by HPLC-MS/MS. Clearance is calculated from compound half-lives using the well-stirred liver model and is converted to clearance stated as % of the liver blood flow (% Qh).

[4] = assay type: in vitro ADME, Human; settings: for Hepatocyte Human: clearance in hepatocytes
Protocol: as §1

[5] = Hepatocyte stability, mice; assay type: in vitro ADME; settings: for Hepatocyte Mice: clearance in hepatocytes
Protocol: as §1

Caco-2 monolayers = assay: in vitro
Source text: (§2) Supplementary Table 1. Structure-Activity Relationships part 1 (SPR, Caco-2) […]
(§3) SPR. Mean values ± standard deviation. Footnotes indicate the number of measurements performed for the respective compound: a) n = […]
(§4) [5] Permeability across Caco-2 monolayers in P(A−B): apical to basolateral and P(B−A): basolateral to apical direction (values reported in 10-
(§5) 6 cm s-1); efflux ratio = P(B−A)/P(A−B); Int. perm: mean value of P(A−B) and P(B−A). […] Influence of Trp-Nα methylation on P(A-B) and efflux
(§6) ratio. Bold: positive influence.

[6] = biological target: His6-tagged ClpC1-NTD substrate, M. smegmatis ClpC1P1P2 (UniProt A0R574+P9WPC9); assay: biochemical; assay type: biochemical
in vitro = settings: human; for Papp A→B: apical to basolateral; for Papp B→A: basolateral to apical
Source text: as §2, §3, §4, §5, §6

[7] = read-out: DC50, single measurements
[8] = read-out: KD ClpC1-NTD Mean ± SD
[9] = SPR (Supplementary Table 1), read-out: KD ClpC1-NTD Mean ± SD
[10] = SPR, single independent measurements, read-out: KD ClpC1-NTD
[11] = mean value of P(A−B) and P(B−A)
[12] = Caco-2, Caco-2 permeability P (A-B)

Chain of ClpC1 NTD protein (M. tuberculosis) (P9WPC9 1-156, looked up, natural form): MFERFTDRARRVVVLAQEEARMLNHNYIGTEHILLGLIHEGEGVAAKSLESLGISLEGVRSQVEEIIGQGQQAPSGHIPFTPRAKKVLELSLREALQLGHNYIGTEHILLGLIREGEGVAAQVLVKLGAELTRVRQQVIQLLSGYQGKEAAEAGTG
Chain of His6-tagged ClpC1-NTD substrate, M. smegmatis ClpC1P1P2 (P9WPC9 1-156, looked up, natural form): as above
Chain of His6-tagged ClpC1-NTD substrate, M. smegmatis ClpC1P1P2 (A0R574 whole entry): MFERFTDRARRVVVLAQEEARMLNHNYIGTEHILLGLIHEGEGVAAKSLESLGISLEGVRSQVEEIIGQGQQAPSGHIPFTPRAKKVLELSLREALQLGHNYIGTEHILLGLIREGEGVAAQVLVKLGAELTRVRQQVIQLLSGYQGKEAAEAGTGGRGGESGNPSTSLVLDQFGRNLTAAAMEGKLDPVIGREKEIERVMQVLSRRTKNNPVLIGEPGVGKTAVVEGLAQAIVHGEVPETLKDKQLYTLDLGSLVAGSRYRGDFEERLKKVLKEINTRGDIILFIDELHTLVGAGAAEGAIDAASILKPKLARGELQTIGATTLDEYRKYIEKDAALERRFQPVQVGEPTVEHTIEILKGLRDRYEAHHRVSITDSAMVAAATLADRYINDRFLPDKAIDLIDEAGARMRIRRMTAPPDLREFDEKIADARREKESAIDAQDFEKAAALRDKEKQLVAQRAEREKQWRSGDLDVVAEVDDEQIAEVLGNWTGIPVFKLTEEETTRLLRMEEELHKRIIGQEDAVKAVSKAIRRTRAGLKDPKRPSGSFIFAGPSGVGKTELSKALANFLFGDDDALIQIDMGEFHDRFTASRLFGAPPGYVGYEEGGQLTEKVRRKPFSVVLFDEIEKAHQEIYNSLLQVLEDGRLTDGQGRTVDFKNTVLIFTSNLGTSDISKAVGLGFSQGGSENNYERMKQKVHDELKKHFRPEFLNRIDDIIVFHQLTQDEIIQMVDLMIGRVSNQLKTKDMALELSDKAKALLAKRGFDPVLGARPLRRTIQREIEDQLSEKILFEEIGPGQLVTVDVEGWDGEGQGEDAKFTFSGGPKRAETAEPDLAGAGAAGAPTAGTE
Chain of ClpC1-NTD substrate, M. tuberculosis ClpC1P1P2 (P9WPC5 whole entry): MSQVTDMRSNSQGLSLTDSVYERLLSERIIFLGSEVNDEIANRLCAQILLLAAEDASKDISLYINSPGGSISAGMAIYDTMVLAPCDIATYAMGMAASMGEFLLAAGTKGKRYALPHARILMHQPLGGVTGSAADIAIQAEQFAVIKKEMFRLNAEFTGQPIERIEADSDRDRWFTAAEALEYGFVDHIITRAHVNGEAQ
Chain of ClpC1-NTD substrate, M. tuberculosis ClpC1P1P2 (P9WPC9 whole entry): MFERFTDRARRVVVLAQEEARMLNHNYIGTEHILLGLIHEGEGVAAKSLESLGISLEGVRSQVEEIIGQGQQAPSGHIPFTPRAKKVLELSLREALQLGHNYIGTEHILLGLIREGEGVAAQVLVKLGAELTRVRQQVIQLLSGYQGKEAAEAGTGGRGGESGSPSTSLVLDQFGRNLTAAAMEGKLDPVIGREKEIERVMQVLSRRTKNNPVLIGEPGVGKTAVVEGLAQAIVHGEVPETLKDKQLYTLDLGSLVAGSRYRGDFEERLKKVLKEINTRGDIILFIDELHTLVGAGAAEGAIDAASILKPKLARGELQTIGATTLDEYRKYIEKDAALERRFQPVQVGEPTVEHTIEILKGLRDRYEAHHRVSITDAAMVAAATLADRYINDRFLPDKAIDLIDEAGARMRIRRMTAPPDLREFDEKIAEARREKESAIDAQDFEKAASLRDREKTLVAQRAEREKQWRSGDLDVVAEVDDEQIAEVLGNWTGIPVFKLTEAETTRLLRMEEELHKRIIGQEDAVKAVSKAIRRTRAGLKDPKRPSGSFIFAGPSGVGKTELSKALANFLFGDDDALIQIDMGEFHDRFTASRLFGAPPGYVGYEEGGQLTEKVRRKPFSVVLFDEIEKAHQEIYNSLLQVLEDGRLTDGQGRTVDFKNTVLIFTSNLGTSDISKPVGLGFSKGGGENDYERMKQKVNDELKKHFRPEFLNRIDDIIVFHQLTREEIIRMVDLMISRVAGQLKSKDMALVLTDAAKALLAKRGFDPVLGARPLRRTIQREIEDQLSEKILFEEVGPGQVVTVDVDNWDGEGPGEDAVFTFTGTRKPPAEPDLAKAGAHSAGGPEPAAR
Chain of ClpC1-NTD substrate, M. tuberculosis ClpC1P1P2 (P9WPC3 whole entry, further chain): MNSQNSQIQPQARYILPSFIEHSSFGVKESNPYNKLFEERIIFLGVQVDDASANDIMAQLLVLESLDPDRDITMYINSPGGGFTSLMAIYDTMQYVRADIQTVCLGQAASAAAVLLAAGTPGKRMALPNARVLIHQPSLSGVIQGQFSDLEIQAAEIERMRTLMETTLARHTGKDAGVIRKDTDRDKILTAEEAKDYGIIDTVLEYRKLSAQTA

| SMILES | 1-Dmax, Mean [1] [%] | 1-Dmax, single measurements [1] | DC50 ([1]; read-out: DC50, Mean) [nM] | DC50 [1, 7] | koff ClpC1-NTD [2] | Kd ([2]; read-out: KD ClpC1-NTD) | Kd [2, 8] [nM] | Hepatocyte Rat [3] [%Qh] | Hepatocyte Stability Rat QH [3] [%] | Hepatocyte Stability Human QH [4] [%] | Hepatocyte Stability Mouse QH [5] [%] | Hepatocyte Mice [5] [%Qh] | CACO permeability PEAB (Caco-2 monolayers; Caco-2) [cm/sec] | CACO permeability PEBA (Caco-2 monolayers; Caco-2) [cm/sec] | Caco-2 Int. Perm (Caco-2 monolayers; Caco-2) | Caco-2 permeability P (A-B) (Caco-2 monolayers; Caco-2) | Caco-2 permeability P (B-A) (Caco-2 monolayers; Caco-2) | Hepatocyte Stability Rat QH ([3]; Rat) [%] | Hepatocyte Rat ([3]; clearance in hepatocytes) [%Qh] | Caco-2 Int. Perm (Caco-2 monolayers; [11]) | also measured |
| --- | --- | --- | --- | --- | --- | --- | --- | --- | --- | --- | --- | --- | --- | --- | --- | --- | --- | --- | --- | --- | --- |
| CO[C@H](c1ccccc1)[C@@H]1NC(=O)[C@H](C)NC(=O)[C@H](C[C@@H](C)CO)N(C)C(=O)[C@H](Cc2cn(CCCCn3cc(C[C@H]4C(=O)N(C)[C@@H](C[C@@H](C)CO)C(=O)N[C@@H](C)C(=O)N[C@@H]([C@H](OC)c5ccccc5)C(=O)N[C@@H](C(C)C)C(=O)N(C)[C@@H](CC(C)C)C(=O)N[C@@H](C(C)C)C(=O)N4C)c4ccccc43)c3ccccc23)N(C)C(=O)[C@H](C(C)C)NC(=O)[C@H](CC(C)C)N(C)C(=O)[C@H](C(C)C)NC1=O [SI-61] | 42 | 36.8% and 46.3% | 7200 | 7300 nM and 7000 nM | 8E-4 5E-4 1/s | 0.581 nM and 0.49 nM | 0.54 ± 0.06 | 6 | 6.192 | 12.386 | 15.001 | 15 | <0.000 | <0.000 | 2.75 10-6 cm s-1 | < 4.2 10-6 cm s-1 | < 1.3 10-6 cm s-1 |  |  |  | 1-Dmax, Mean [6]: 42%; 1-Dmax, single measurements [6]: 37.4% and 43.6% and 42.4% and 44.3%; DC50 ([6]; read-out: DC50, Mean): 5300 nM; DC50 [6, 7]: 5.3 µM (2×) and 4.6 µM and 5.8 µM |
| CO[C@H](c1ccc(OCc2cn(CCCCCn3cc(COc4ccc([C@@H](OC)[C@@H]5NC(=O)[C@H](C)NC(=O)[C@H](C[C@@H](C)CO)N(C)C(=O)[C@H](Cc6cn(C)c7ccccc67)N(C)C(=O)[C@H](C(C)C)NC(=O)[C@H](CC(C)C)N(C)C(=O)[C@H](C(C)C)NC5=O)cc4)nn3)nn2)cc1)[C@@H]1NC(=O)[C@H](C)NC(=O)[C@H](C[C@@H](C)CO)N(C)C(=O)[C@H](Cc2cn(C)c3ccccc23)N(C)C(=O)[C@H](C(C)C)NC(=O)[C@H](CC(C)C)N(C)C(=O)[C@H](C(C)C)NC1=O [SI-66] |  |  |  |  |  |  |  |  |  |  |  | 15 |  |  |  |  |  | 9.964 | 10 | 3.7 10-6 cm s-1 | Kd [2, 9]: 7 ± 2 nM; koff ([2]; SPR dissociation rate constant, read-out: koff ClpC1-NTD Mean ± SD): 0.01 s⁻¹; Kd [2, 10]: 8.57 nM and 6.41 nM; Hepatocyte Human [4]: 12 %Qh; Papp A→B (in vitro; [12]): < 4.8 ×10⁻⁶ cm/s; Papp B→A (in vitro; Caco-2, Caco-2 permeability P (B-A)): < 2.5 ×10⁻⁶ cm/s |
| C#CCOc1ccc([C@@H](OC)[C@@H]2NC(=O)[C@@H](C)NC(=O)[C@H](CC(C)CO)N(C)C(=O)C(Cc3cn(C)c4ccccc34)N(C)C(=O)C(C(C)C)NC(=O)[C@H](CC(C)C)N(C)C(=O)[C@@H](C(C)C)NC2=O)cc1 (stereo partly drawn) [SI-64] (cyclo([NMeL][ξV][ξNMeTrp(1-Me)][X8][dA][X3][dV])) |  |  |  |  |  |  |  |  |  |  |  | 34 |  |  |  |  |  | 49.748 | 50 | 29.0 10-6 cm s-1 | Kd [2, 9]: 11 ± 1 nM; Kd [2, 10]: 12.1 nM and 10.5 nM; Hepatocyte Stability Human QH ([4]; Human): 21.688%; Hepatocyte Human [4]: 22 %Qh; Hepatocyte Stability Mouse QH ([5]; Mouse): 34.335%; CACO permeability PEAB (Caco-2 monolayers; apical to basolateral): 0.000014999999999999999 cm/s; CACO permeability PEBA (Caco-2 monolayers; basolateral to apical): 0.000042999999999999995 cm/s; Permeability Correlation P (A-B) (Caco-2 monolayers; influence of Trp-Nα methylation on P(A-B), matched pair, listed under the methylated partner): > 75; Permeability Correlation Ratio (Caco-2 monolayers; influence of Trp-Nα methylation on efflux ratio, matched pair, listed under the methylated partner): > 31; efflux ratio (in vitro; Caco-2): 2.9; Papp A→B (in vitro; Caco-2, CACO permeability PEAB): 17 ×10⁻⁶ cm/s; Papp B→A (in vitro; Caco-2, CACO permeability PEBA): 44 ×10⁻⁶ cm/s |
| CCCCCn1cc(C[C@@H]2NC(=O)[C@H](CC(C)C)N(C)C(=O)[C@H](C(C)C)NC(=O)[C@H]([C@H](OC)c3ccccc3)NC(=O)[C@H](C)NC(=O)[C@H](C[C@@H](C)CO)N(C)C(=O)[C@H](Cc3cn(C)c4ccccc34)NC2=O)nn1 [Compound 24] |  |  |  |  |  |  |  |  |  |  |  | 35 |  |  |  |  |  | 33.303 | 33 | 5.6 10-6 cm s-1 | Kd ([2]; SPR, individual measurements (source data), read-out: KD ClpC1-NTD): 4.68 nM and 4.44 nM; Kd ([2]; SPR, read-out: ClpC1-NTD KD Mean ± SD): 4.6 ± 0.2 nM; Hepatocyte Stability Human QH ([4]; Human): 17.172%; Hepatocyte Stability Mouse QH ([5]; Mouse): 35.166%; CACO permeability PEBA (Caco-2 monolayers; basolateral to apical): 0.000011 cm/s; Papp A→B (in vitro; Caco-2, CACO permeability PEAB): < 0.27 ×10⁻⁶ cm/s; Papp B→A (in vitro; Caco-2, CACO permeability PEBA): 13 ×10⁻⁶ cm/s; Papp A→B (in vitro; [12]): < 0.3 ×10⁻⁶ cm/s |
| CO[C@H](c1ccccc1)[C@@H]1NC(=O)[C@H](C)NC(=O)[C@H](C[C@@H](C)CO)N(C)C(=O)[C@H](Cc2cn(C/C=C/Cn3cc(C[C@H]4C(=O)N(C)[C@@H](C[C@@H](C)CO)C(=O)N[C@@H](C)C(=O)N[C@@H]([C@H](OC)c5ccccc5)C(=O)N[C@@H](C(C)C)C(=O)N(C)[C@@H](CC(C)C)C(=O)N[C@@H](C(C)C)C(=O)N4C)c4ccccc43)c3ccccc23)N(C)C(=O)[C@H](C(C)C)NC(=O)[C@H](CC(C)C)N(C)C(=O)[C@H](C(C)C)NC1=O [Compound 28] (I: cyclo(A[Phe(βR-OMe)]V[NMeL]V[X10][NMeLeu(5-OH,4R)]) / II: cyclo(A[Phe(βR-OMe)]V[NMeL]V[X10][NMeLeu(5-OH,4R)]); staple (E) I:6-II:6) |  |  |  |  | 1E-3 1E-3 1/s | 1.73 nM and 1.92 nM |  | 6 | 6.357 | 12.386 | 15.001 | 15 |  | <0.00000039 | 0.66 10-6 cm s-1 | 0.9 10-6 cm s-1 | < 0.4 10-6 cm s-1 |  |  |  | koff ClpC1-NTD Mean ± SD [2]: 0.001 ± 6e-05 s⁻¹; Kd ([2]; read-out: ClpC1-NTD KD Mean ± SD): 1.8 ± 0.1 nM; Permeability Correlation P (A-B) (Caco-2 monolayers; Caco-2): 0.4 |
| COC(c1ccc(OCc2cn(CCOCCOCCOCCOCCn3cc(COc4ccc(C(OC)C5NC(=O)C(C)NC(=O)C(CC(C)CO)N(C)C(=O)C(Cc6cn(C)c7ccccc67)N(C)C(=O)C(C(C)C)NC(=O)C(CC(C)C)N(C)C(=O)C(C(C)C)NC5=O)cc4)nn3)nn2)cc1)C1NC(=O)C(C)NC(=O)C(CC(C)CO)N(C)C(=O)C(Cc2cn(C)c3ccccc23)N(C)C(=O)C(C(C)C)NC(=O)C(CC(C)C)N(C)C(=O)C(C(C)C)NC1=O (stereo not drawn) [SI-65] | 84 | 84.7% and 83.2% | 8000 | 7000 nM and 9000 nM | 5E-3 1E-2 1/s | 2.29 nM and 1.35 nM | 1.8 ± 0.7 |  | 16.284 | 12.386 | 15.001 |  | <0.0000086 | <0.0000051 | 6.9 10-6 cm s-1 |  |  |  |  |  | 1-Dmax, Mean [6]: 92%; 1-Dmax, single measurements [6]: 86.9% and 92.9% and 97.0%; DC50 ([6]; read-out: DC50, Mean): 5200 nM; DC50 [6, 7]: 6100 nM and 5000 nM and 4500 nM |
